From patent US20130071854A1, “METHODS FOR THE IDENTIFICATION AND CHARACTERIZATION OF HDAC INTERACTING COMPOUNDS” (priority 2009, published 2013)
Like-named read-outs stand apart in the source and are kept apart here.

Columns and labels:
[1] = test system: T1, MiDAC complex (HDAC1/2, DNTTIP1, CDYL, MIDEAS); experiment: Chemoproteomic binding profiling, K562 cell extract, SAHA/ITF2357 probe matrix (Kd app); parameters: species or system human
T1 construct: Kd^app MIDEAS; other: protein MIDEAS; MiDAC complex; Kd^app DNTTIP1; other: protein DNTTIP1

Sin3 complex [2] = experiment: as above; parameters: species or system human
HDAC3 = molecular target: T2, HDAC3 (Homo sapiens, UniProt O15379); experiment: as above; details: for Kd: protein HDAC3, NCoR complex
T2 construct: used to probe endogenous HDACs in K562 whole cell extracts; endogenous in cells

GATAD2A = experiment: Competition binding assay in cell lysate, affinity matrix, MS (Mi-2/NuRD interactor); details: K-562 cell lysate
PTER = molecular target: T3, PTER (Homo sapiens, UniProt Q96BW5); experiment: Competition binding assay in cell lysate, affinity matrix, MS
T3 construct: endogenous in cells
T3 sequence (Q96BW5 1-349): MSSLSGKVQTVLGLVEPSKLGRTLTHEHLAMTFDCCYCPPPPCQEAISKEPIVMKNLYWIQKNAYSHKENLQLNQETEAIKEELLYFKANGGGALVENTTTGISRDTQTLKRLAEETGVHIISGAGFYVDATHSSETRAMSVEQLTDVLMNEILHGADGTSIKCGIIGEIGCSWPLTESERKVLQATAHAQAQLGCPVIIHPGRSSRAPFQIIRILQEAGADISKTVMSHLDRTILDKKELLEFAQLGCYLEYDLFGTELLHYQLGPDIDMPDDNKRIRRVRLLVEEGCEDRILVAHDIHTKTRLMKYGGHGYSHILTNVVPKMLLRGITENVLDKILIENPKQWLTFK

SIN3A = details: K-562 cell lysate
recombinant HDACs 1-11 = experiment: Binding of probe matrix to recombinant HDACs purified from Sf9 cells, competition by free SAHA; details: recombinant HDACs 1-11 purified from Sf9 cells
HDAC6 = molecular target: T4, HDAC6 (Homo sapiens, UniProt Q9UBN7); experiment: Compound screening, competition binding with SAHA-beads, antibody dot-blot arrays, Jurkat and Ramos whole cell extract; parameters: endogenous in cells; Jurkat/Ramos whole cell extract
T4 sequence (Q9UBN7 1-1215): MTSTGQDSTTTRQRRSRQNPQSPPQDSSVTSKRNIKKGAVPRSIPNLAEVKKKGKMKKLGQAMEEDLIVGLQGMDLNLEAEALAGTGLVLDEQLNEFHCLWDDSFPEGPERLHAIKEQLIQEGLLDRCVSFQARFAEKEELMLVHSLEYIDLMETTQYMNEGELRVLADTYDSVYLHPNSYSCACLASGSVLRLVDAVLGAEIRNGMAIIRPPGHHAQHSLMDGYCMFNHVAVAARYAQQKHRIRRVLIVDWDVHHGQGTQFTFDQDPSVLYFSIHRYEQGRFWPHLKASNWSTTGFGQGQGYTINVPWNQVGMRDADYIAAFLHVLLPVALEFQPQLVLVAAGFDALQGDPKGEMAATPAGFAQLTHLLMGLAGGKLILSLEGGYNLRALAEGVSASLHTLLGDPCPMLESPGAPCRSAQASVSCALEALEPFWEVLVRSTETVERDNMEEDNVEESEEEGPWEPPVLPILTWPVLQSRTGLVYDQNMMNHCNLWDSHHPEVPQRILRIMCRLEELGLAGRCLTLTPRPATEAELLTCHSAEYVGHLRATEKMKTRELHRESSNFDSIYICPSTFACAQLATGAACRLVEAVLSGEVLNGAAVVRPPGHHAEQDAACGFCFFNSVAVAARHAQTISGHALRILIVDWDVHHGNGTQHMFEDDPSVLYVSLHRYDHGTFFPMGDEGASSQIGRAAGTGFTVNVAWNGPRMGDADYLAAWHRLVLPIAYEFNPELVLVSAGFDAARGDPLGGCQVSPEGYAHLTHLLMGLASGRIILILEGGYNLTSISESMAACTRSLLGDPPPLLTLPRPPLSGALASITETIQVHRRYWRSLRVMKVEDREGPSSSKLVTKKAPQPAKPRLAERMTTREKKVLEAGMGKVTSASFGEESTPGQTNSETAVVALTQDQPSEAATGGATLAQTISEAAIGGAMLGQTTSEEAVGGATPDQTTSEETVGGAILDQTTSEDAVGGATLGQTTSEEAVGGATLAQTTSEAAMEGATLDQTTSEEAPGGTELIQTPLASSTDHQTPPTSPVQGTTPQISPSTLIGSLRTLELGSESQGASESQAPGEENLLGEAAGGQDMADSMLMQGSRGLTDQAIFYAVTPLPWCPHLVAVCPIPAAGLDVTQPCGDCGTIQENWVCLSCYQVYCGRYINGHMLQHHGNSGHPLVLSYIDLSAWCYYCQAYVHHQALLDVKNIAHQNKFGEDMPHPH
Description: To enable the discovery of novel selective HDACi we developed a high throughput variation of the chemoproteomics protocol in which MS/MS detection is replaced with multiplexed fluorescent antibody detection on “dot blot” type arrays. The method was applied to the screening of a focused compound library in whole cell extract of Jurkat and Ramos cells for inhibitors of HDAC1, 2, 3 and 6. Several hits were obtained with a few compounds displaying a notable degree of selectivity (FIG. 35a). […] The cellular potency for tubulin deacetylation correlated with the potency for one of the drugs' anti-inflammatory effects, the secretion of IFNα in peripheral blood mononuclear cells (FIG. 35d).
The compounds for screening was selected either for their potential to be Zinc chelators or based on a similarity search of the compound collections from Asinex Corp. (Winston-Salem, N.C., USA) and Enamine (Mammouth_Jct., NJ, USA), using a training set of 140 known HDAC inhibitors. Competition binding assays using SAHA-beads were performed essentially as described above but adapted to a 96-well format. 1 mg of cell lysate and 5 μl of beads were used per well. Compounds from the screening library including reference compounds as standards were added at 20 μM and 100 μM final concentration from 50×DMSO stocks. Each plate contained 8 positive (TSA 50 μM) and eight negative controls (2% DMSO). […]

Sin3 complex [3] = molecular target: Sin3 complex (Homo sapiens, UniProt Q13547+Q92769); experiment: Chemoproteomic binding profiling, K562 cell extract, SAHA/ITF2357 probe matrix (Kd app)
[4] = protein SAP30, read-out: Kd^app SAP30
[5] = protein SIN3A, read-out: Kd^app SIN3A
[6] = protein SIN3B, read-out: Kd^app SIN3B

T2 sequence (O15379 whole entry): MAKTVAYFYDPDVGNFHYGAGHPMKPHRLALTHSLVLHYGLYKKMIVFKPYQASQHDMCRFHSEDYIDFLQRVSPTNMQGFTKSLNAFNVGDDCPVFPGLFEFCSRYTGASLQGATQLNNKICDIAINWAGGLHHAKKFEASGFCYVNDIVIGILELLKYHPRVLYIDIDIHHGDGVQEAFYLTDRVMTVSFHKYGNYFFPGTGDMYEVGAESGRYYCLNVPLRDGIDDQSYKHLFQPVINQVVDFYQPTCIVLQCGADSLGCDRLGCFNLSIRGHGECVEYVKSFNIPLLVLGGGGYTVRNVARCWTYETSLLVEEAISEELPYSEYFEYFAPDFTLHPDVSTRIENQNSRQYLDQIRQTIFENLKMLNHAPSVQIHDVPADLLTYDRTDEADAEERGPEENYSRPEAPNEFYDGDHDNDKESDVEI
T2 sequence (O75376 whole entry partner): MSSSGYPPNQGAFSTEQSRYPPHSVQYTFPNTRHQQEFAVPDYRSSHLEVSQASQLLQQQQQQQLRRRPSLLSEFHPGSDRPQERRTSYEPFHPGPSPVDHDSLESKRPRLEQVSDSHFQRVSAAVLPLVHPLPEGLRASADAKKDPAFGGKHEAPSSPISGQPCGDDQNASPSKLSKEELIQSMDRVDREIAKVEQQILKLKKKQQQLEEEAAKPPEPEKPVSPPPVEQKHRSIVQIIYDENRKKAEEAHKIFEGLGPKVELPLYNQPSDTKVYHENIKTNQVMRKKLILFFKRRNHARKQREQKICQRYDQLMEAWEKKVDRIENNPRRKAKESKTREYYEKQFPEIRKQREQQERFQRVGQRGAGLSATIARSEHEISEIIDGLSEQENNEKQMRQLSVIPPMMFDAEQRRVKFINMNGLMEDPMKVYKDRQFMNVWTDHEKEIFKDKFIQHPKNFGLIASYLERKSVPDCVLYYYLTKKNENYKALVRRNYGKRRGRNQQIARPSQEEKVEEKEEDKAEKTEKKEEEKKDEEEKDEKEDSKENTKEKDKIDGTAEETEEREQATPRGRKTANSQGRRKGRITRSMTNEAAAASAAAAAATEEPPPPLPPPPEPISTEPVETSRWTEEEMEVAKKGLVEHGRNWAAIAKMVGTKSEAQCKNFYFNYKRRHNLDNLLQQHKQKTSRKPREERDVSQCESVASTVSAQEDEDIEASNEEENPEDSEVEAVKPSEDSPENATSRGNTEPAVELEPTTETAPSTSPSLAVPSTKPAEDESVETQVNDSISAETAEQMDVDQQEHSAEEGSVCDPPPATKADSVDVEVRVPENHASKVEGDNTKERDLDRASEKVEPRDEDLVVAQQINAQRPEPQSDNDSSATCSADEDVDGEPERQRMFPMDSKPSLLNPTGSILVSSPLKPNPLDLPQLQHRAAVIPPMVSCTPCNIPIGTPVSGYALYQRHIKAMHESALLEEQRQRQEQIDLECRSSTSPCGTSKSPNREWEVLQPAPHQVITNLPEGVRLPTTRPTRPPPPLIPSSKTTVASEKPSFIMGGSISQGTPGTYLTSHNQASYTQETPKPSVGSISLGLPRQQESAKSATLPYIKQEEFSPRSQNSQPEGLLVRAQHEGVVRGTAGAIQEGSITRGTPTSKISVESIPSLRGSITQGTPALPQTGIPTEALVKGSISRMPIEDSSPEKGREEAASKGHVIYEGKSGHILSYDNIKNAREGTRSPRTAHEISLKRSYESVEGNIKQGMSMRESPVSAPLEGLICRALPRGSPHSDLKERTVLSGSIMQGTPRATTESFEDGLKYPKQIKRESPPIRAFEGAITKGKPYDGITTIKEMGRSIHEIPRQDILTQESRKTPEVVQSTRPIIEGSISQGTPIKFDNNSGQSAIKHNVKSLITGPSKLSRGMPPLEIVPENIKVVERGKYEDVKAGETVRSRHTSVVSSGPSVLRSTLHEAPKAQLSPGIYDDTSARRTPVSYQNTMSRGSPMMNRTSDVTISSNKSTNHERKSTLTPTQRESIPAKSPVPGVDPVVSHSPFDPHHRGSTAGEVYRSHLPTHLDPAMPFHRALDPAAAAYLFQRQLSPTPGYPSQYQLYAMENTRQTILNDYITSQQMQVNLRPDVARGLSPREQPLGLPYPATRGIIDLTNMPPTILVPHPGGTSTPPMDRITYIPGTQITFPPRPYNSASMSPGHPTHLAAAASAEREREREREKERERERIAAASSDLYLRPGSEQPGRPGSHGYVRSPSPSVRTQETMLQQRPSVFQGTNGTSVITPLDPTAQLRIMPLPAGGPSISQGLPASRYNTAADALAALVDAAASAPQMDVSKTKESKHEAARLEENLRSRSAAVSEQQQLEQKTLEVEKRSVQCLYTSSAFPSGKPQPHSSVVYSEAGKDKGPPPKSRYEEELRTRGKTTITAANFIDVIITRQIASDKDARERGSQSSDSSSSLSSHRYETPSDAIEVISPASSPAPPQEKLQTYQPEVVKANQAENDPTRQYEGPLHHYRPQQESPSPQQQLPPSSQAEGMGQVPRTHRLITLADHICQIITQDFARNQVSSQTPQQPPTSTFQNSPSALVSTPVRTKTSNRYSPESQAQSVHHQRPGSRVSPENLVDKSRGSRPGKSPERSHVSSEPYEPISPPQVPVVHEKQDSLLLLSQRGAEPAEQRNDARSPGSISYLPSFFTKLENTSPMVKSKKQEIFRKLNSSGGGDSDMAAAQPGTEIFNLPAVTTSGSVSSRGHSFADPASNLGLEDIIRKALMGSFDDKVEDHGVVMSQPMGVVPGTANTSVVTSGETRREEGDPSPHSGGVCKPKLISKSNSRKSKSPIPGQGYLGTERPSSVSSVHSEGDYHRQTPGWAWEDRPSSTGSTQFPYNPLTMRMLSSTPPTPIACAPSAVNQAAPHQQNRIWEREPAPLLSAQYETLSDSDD
T2 sequence (O60907 whole entry partner): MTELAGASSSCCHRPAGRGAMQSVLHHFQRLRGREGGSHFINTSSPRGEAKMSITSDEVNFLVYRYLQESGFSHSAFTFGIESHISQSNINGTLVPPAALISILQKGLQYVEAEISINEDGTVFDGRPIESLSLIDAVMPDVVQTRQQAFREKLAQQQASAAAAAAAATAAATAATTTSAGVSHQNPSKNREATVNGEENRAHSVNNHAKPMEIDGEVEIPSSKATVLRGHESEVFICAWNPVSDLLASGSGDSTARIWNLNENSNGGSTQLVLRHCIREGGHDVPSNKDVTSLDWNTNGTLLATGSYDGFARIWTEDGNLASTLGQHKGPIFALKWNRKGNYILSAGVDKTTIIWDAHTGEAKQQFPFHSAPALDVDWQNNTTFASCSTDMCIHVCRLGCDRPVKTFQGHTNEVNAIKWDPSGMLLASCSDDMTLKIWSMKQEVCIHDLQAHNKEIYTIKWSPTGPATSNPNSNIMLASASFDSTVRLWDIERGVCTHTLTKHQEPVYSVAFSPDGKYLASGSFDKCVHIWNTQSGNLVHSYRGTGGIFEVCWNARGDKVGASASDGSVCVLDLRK
T2 sequence (Q9BZK7 whole entry partner): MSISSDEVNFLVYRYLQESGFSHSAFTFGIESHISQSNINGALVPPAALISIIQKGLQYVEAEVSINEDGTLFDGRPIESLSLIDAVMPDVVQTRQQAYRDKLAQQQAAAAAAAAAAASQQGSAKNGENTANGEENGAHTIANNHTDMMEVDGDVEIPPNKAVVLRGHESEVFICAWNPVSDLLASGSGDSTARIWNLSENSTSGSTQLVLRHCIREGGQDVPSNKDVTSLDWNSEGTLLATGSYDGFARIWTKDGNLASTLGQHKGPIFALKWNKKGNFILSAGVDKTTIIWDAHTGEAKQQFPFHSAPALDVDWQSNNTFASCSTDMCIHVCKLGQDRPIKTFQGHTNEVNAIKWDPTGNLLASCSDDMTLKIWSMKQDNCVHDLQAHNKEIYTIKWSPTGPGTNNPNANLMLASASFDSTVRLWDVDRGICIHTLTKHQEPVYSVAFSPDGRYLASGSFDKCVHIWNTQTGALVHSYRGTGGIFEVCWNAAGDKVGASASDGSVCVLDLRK
T2 sequence (Q13227 whole entry partner): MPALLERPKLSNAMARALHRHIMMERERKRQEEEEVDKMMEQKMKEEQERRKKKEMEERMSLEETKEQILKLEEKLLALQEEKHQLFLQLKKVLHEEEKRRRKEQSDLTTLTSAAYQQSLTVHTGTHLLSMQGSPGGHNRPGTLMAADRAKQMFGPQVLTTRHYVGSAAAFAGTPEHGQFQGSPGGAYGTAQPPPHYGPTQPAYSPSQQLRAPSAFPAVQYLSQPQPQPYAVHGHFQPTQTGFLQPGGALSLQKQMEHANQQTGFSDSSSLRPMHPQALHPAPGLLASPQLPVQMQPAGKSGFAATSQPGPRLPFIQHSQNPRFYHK

Q: `Nc1ccccc1NC(=O)CCCCCCC(=O)Nc1ccccc1` [BML-210] was tested. Which Kd ([1]; protein DNTTIP1, read-out: Kd^app DNTTIP1) did it give?
A: > 85 µM

Q: What about the Kd ([1]; protein MIDEAS, read-out: Kd^app MIDEAS) of the same molecule?
A: > 85 µM

Q: And the Kd (Sin3 complex [2]; [4])?
A: > 85 µM

Q: What about the Kd (Sin3 complex [2]; [5]) of the same molecule?
A: > 85 µM

Q: What about the Kd (Sin3 complex [2]; [6]) of the same molecule?
A: > 85 µM

Q: What about the “selectivity for HDAC3 over HDAC1/HDAC2 (in words)” value (HDAC3; K562 cell extract, compared with SAHA) of the same molecule?
A: increase in selectivity for HDAC3 over HDAC1/HDAC2

Q: What about the Kd (HDAC3) of the same molecule?
A: 7 µM

Q: Which results are given for `Nc1ccccc1NC(=O)c1ccc(CNC(=O)OCc2cccnc2)cc1` [MS-275]?
A: IC50 (GATAD2A): 300 µM; IC50 (PTER): ≥ 300 µM

Q: `O=C(CCCCCCC(=O)Nc1ccccc1)NO` [SAHA, suberoylanilide hydroxamic acid] was tested. Which IC50 (SIN3A) did it give?
A: 0.57 µM

Q: And the “competition of capture of recombinant HDACs by the probe matrix (in words)” value (recombinant HDACs 1-11)?
A: only affected at a high excess of free SAHA

Q: What about the IC50 (PTER) of the same molecule?
A: ≥ 10 µM

Q: What about the IC50 (PTER; IC50, PTER, mix of Jurkat and Ramos cell lysates) of the same molecule?
A: 10 µM

Q: What does the source list for `CCCCOc1ccc(CC(=O)NO)cc1` [bufexamac]?
A: screen result for HDAC6 (in words) (HDAC6): preferentially affect HDAC6; Kd (Sin3 complex [3]; [4]): 125 µM; Kd (Sin3 complex [3]; [5]): 185 µM; Kd (Sin3 complex [3]; [6]): > 59.7 µM; Kd (HDAC3): 348 µM
